This note sets out measurements from patent US8431597B2, “Benzimidazole derivatives” (Pfizer Inc., priority 2007, dated 2013).

In general, inhibition refers to the change of the read-out against control, counted positive when it falls.

Structures can show the parent of a compound that is named as a salt.

The target of this assay is T1, Smoothened (SMO) (Mus musculus, UniProt P56726).
T1 construct: C3H10T1/2 cells (ATCC #CCL-226) were split and seeded; endogenous in cells; host or cells: C3H10T1/2 (ATCC #CCL-226)
T1 sequence (P56726 33-793): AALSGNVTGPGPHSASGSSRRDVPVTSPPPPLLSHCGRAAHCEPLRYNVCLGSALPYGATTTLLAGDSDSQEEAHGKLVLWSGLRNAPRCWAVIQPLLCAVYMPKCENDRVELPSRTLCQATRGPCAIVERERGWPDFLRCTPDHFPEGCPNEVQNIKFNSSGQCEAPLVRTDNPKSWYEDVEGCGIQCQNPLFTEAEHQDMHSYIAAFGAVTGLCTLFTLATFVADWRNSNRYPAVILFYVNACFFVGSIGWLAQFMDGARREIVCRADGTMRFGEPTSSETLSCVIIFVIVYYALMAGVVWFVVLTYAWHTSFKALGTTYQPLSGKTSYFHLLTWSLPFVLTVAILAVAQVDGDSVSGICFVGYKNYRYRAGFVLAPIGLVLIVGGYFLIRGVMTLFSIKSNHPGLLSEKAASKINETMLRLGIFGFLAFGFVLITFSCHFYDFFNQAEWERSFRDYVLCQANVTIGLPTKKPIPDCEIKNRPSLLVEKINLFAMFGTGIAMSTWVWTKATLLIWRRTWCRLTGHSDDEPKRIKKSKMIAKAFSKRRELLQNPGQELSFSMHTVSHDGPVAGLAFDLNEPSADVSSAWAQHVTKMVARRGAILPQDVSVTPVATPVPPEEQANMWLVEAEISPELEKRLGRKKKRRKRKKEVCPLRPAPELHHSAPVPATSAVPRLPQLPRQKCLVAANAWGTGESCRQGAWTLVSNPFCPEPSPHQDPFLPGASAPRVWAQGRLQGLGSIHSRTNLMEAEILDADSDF
The experiment in a line: Smoothened (SMO)/Sonic Hedgehog (SHh) Transient Transcriptional Activation Assay (Gli-luciferase reporter in C3H10T1/2 cells). It counts as cell-based, murine. Particulars: C3H 10T1/2, 2 μM compound; transfected C3H10T1/2 cells, recombinant human SHh 250 ng/mL, 20 hours, luciferase readout; read-out: SMO CELL % INHIBITION @ 2 μM. In outline: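 C3H10T1/2 cells transiently transfected with a murine Gli-responsive firefly luciferase reporter plus pEGFP were serum-starved 20 h in 0.5% calf serum. Compound (2 μM to 2 nM final) was added with recombinant human SHh at 250 ng/mL final for 20 h at 37 °C. Read-out was Dual-Glo luminescence.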
(In general: Reporter assays use an easily measured gene product as a stand-in for the process of interest.)
For `CN1CC[C@@H](NC(=O)c2ccc(C(=O)C(F)(F)F)cc2)C[C@@H]1c1nc2ccccc2[nH]1` [Example 68, N-[(2R,4R)-2-(1H-benzimidazol-2-yl)-1-methylpiperidin-4-yl]-4-(trifluoroacetyl)benzamide], the inhibition at 2 µM was found to be 102%. For the compound `COc1ccc2[nH]c([C@H]3C[C@H](NC(=O)c4cc5c(cc4Cl)OCCO5)CCN3C)nc2c1` [Example 149, 7-chloro-N-[(2R,4R)-2-(5-methoxy-1H-benzimidazol-2-yl)-1-methylpiperidin-4-yl]-2,3-dihydro-1,4-benzodioxine-6-carboxamide triflouroacetate], the inhibition at 2 µM is 35.3%. Consider `CN1CC[C@@H](NC(=O)c2cc3c(cc2Cl)OCCO3)C[C@@H]1c1nc2cc(Cl)ccc2[nH]1` [Example 148, 7-chloro-N-[(2R,4R)-2-(5-chloro-1H-benzimidazol-2-yl)-1-methylpiperidin-4-yl]-2,3-dihydro-1,4-benzodioxine-6-carboxamide triflouroacetate], for which the inhibition at 2 µM is 95%. As for `CN1CC[C@@H](NC(=O)c2ccc3c(c2Cl)OCCO3)C[C@@H]1c1nc2ccccc2[nH]1` [Example 144, N-[(2R,4R)-2-(1H-benzimidazol-2-yl)-1-methylpiperidin-4-yl]-5-chloro-2,3-dihydro-1,4-benzodioxine-6-carboxamide triflouroacetate], the figure is 108%; as for `CN1CC[C@@H](NC(=O)c2ccc3c(c2)OCCO3)C[C@@H]1c1nc2ccc(F)cc2[nH]1` [Example 45, N-[(2R,4R)-2-(6-fluoro-1H-benzimidazol-2-yl)-1-methylpiperidin-4-yl]-2,3-dihydro-1,4-benzodioxine-6-carboxamide hydrochloride], 105%. On to `Cc1nc(C(F)(F)F)ccc1C(=O)N[C@@H]1CCN(C)[C@@H](c2nc3ccccc3[nH]2)C1` [Example 91, N-[(2R,4R)-2-(1H-benzimidazol-2-yl)-1-methylpiperidin-4-yl]-2-methyl-6-(trifluoromethyl)nicotinamide hydrochloride], for which the inhibition at 2 µM came to 87.9%. As to `Cc1ccc2[nH]c([C@H]3C[C@H](NC(=O)Nc4ccc(C#N)cc4)CCN3C)nc2c1` [Example 36, 1-(4-cyanophenyl)-3-[(2R,4R)-1-methyl-2-(5-methyl-1H-benzimidazol-2-yl)piperidin-4-yl]urea hydrochloride], the inhibition at 2 µM was 107%. As to `O=C(N[C@@H]1CCN(C2CCC2)[C@@H](c2nc3ccccc3[nH]2)C1)c1ccc2c(c1)OCCO2` [Example 82, N-[(2R,4R)-2-(1H-benzimidazol-2-yl)-1-cyclobutyl-piperidin-4-yl]-2,3-dihydro-1,4-benzodioxine-6-carboxamide hydrochloride], the inhibition at 2 µM turned out to be 96.8%.

Turning to `CN1CC[C@@H](NC(=O)Nc2ccc(C(F)(F)F)nc2)C[C@@H]1c1nc2cc(C#N)ccc2[nH]1` [Example 55, 1-[(2R,4R)-2-(5-cyano-1H-benzimidazol-2-yl)-1-methylpiperidin-4-yl]-3-[6-(trifluoromethyl)pyridin-3-yl]urea hydrochloride], the inhibition at 2 µM was determined as 105%.

In the case of `CC(C)c1ccc(NC(=O)N[C@@H]2CCN(C)[C@@H](c3nc4ccccc4[nH]3)C2)cc1` [Example 53, 1-[(2R.4R)-2-(1H-benzimidazol-2-yl)-1-methylpiperidin-4-yl]-3-(4-isopropylphenyl)urea hydrochloride], the inhibition at 2 µM came to 105%. Regarding `CN1CC[C@@H](NC(=O)Cc2nc3ccccc3o2)C[C@@H]1c1nc2ccccc2[nH]1` [Example 114, N-[(2R,4R)-2-(1H-benzimidazol-2-yl)-1-methylpiperidin-4-yl]-2-(1,3-benzoxazol-2-yl)acetamide trifluoroacetate], the inhibition at 2 µM is 75.5%. For the compound `CN1CC[C@@H](NC(=O)Nc2ccc(C#N)cc2)C[C@@H]1c1nc2cc(C(F)(F)F)ccc2[nH]1` [Example 7, 1-(4-cyanophenyl)-3-{(2R,4R)-1-methyl-2-[5-(trifluoromethyl)-1H-benzimidazol-2-yl]piperidin-4-yl}urea hydrochloride], the inhibition at 2 µM amounted to 109%. `CN1CC[C@@H](NC(=O)c2ccc3c(c2)OCCO3)C[C@@H]1c1nc2ccc(C(F)(F)F)cc2[nH]1` [Example 79, N-{(2R,4R)-1-methyl-2-[6-(trifluoromethyl)-1H-benzimidazol-2-yl]piperidin-4-yl}-2,3-dihydro-1,4-benzodioxine-6-carboxamide hydrochloride]: the inhibition at 2 µM was 99.2%. Consider `CN1CC[C@@H](NC(=O)c2ccc3c(c2)OCCO3)C[C@H]1c1nc2ccccc2[nH]1` [Example 42, N-[(2S,4R)-2-(1H-benzimidazol-2-yl)-1-methylpiperidin-4-yl]-2,3-dihydro-1,4-benzodioxine-6-carboxamide hydrochloride], for which the inhibition at 2 µM was determined as 106%.

On to `CN1CC[C@@H](NC(=O)NCc2ccccc2)C[C@@H]1c1nc2ccccc2[nH]1` [Example 76, 1-[(2R,4R)-2-(1H-benzimidazol-2-yl)-1-methylpiperidin-4-yl]-3-benzylurea hydrochloride], for which the inhibition at 2 µM was 100%. As for `COc1ccc(C(=O)N[C@@H]2CCN(C)[C@@H](c3nc4ccccc4[nH]3)C2)cc1` [Example 111, N-[(2R,4R)-2-(1H-benzimidazol-2-yl)-1-methylpiperidin-4-yl]-4-methoxybenzamide trifluoroacetate], the figure is 83.2%.
